Reference: US11053239B2, “Compounds as BLC-2-selective apoptosis-inducing agents” (Fochon Pharmaceuticals, Ltd., priority 2017, dated 2021)
Like-named read-outs stand apart in the source and are kept apart here.

What was measured:
DOHH2 cells = test: Cell proliferation assay (MTS), DOHH2 cells; type: cell-based; conditions: DOHH2 (DSMZ ACC 47) cell proliferation, 5000 cells/well, 120 h, MTS, mechanism-based readout of Bcl-2 inhibition, read-out: DOHH2 IC50
Procedure, shortened: (§1)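 RS4;11 (30000 cells/well, 72 h) and DOHH2 (5000 cells/well, 120 h) cells in RPMI-1640/10% FBS, treated at 37 °C with compound at 1.5–10000 nM final. Viability by MTS (2 h, SDS stop), absorbance 490 nm minus 650 nm reference; IC50 fitted.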

RS4; 11 cells = test: Cell proliferation assay (MTS), RS4; 11 cells; type: cell-based; conditions: RS4, 11 (ATCC CRL-1873) cell proliferation, 30000 cells/well, 72 h, MTS, mechanism-based readout of Bcl-2 inhibition, read-out: RS4, 11 IC50
Procedure, shortened: as §1

IC50 (RS4; 11 cells; Homo sapiens, RS4-11, 72 h) [nM]	IC50 (RS4; 11 cells) [nM]	Compound	IC50 (DOHH2 cells; Homo sapiens, DOHH-2, 120 h) [nM]	IC50 (DOHH2 cells) [nM]
119		C[C@@H](CN1CCS(=N)(=O)CC1)Nc1ccc(S(=O)(=O)NC(=O)c2ccc(N3CCN(CC4=C(c5ccc(Cl)cc5)CC(C)(C)CC4)CC3)cc2Oc2cnc3[nH]ccc3c2)cc1[N+](=O)[O-] [Example 45, (S)-2-((1H-pyrrolo[2,3-b]pyridin-5-yl)oxy)-4-(4-((4′-chloro-5,5-dimethyl-3,4,5,6-tetrahydro-[1,1′-biphenyl]-2-yl)methyl)piperazin-1-yl)-N-((4-((1-(1-imino-1-oxido-1λ^6-thiomorpholino)propan-2-yl)amino)-3-nitrophenyl)sulfonyl) benzamide]	121	
21		CCS(=O)(CC)=NC1CC(CNc2ccc(S(=O)(=O)NC(=O)c3ccc(N4CCN(CC5=C(c6ccc(Cl)cc6)CC(C)(C)CC5)CC4)cc3Oc3cnc4[nH]ccc4c3)cc2[N+](=O)[O-])C1 (centres unmarked) [Example 60, 2-((1H-pyrrolo[2,3-b]pyridin-5-yl)oxy)-4-(4-((4′-chloro-5,5-dimethyl-3,4,5,6-tetrahydro-[1,1′-biphenyl]-2-yl)methyl)piperazin-1-yl)-N-((4-(((3-((diethyl(oxo)-λ^6-sulfanylidene)amino)cyclobutyl)methyl)amino)-3-nitrophenyl)sulfonyl)benzamide]	49	
	12	CC1(C)CCC(CN2CCN(c3ccc(C(=O)NS(=O)(=O)c4ccc(NCC5CCC(NS(C)(=N)=O)CC5)c([N+](=O)[O-])c4)c(Oc4cnc5[nH]ccc5c4)c3)CC2)=C(c2ccc(Cl)cc2)C1 (centres unmarked) [Example 56, 4-(4-{[2-(4-chlorophenyl)-4,4-dimethylcyclohexyl-1-en-1-yl]methyl}piperazin-1-yl)-N-(4-{[(4-methanesulfono-imidamidocyclohexyl)methyl]amino}-3-nitrobenzenesulfonyl)-2-{1H-pyrrolo[2,3-b]pyridine-5-yloxy}benzamide]		50
7		CCC(=O)N=S1(=O)CCN(CC[C@H](C)Nc2ccc(S(=O)(=O)NC(=O)c3ccc(N4CCN(CC5=C(c6ccc(Cl)cc6)CC(C)(C)CC5)CC4)cc3Oc3cnc4[nH]ccc4c3)cc2[N+](=O)[O-])CC1 [Example 81, (S)-2-((1H-pyrrolo[2,3-b]pyridin-5-yl)oxy)-4-(4-((4′-chloro-5,5-dimethyl-3,4,5,6-tetrahydro-[1,1′-biphenyl]-2-yl)methyl)piperazin-1-yl)-N-((3-nitro-4-((4-(1-oxido-1-(propionylimino)-1λ^6-thiomorpholino)butan-2-yl)amino)phenyl)sulfonyl) benzamide]	30	
36		C[C@@H](CN1CCS(=O)(=NC#N)CC1)Nc1ccc(S(=O)(=O)NC(=O)c2ccc(N3CCN(CC4=C(c5ccc(Cl)cc5)CC(C)(C)CC4)CC3)cc2Oc2cnc3[nH]ccc3c2)cc1[N+](=O)[O-] [Example 6, (S)-2-((1H-pyrrolo[2,3-b]pyridin-5-yl)oxy)-4-(4-((4′-chloro-5,5-dimethyl-3,4,5,6-tetrahydro-[1,1′-biphenyl]-2-yl)methyl)piperazin-1-yl)-N-((4-((1-(1-(cyanoimino)-1-oxido-1λ^6-thiomorpholino)propan-2-yl)amino)-3-nitrophenyl)sulfonyl)benzamide]	150	
3		CC1(C)CCC(CN2CCN(c3ccc(C(=O)NS(=O)(=O)c4ccc(NCC5CCC(N=S(C)(C)=O)CC5)c([N+](=O)[O-])c4)c(Oc4cnc5[nH]ccc5c4)c3)CC2)=C(c2ccc(Cl)cc2)C1 (single isomer, unassigned) [Example 50A, 2-((1H-pyrrolo[2,3-b]pyridin-5-yl)oxy)-4-(4-((4′-chloro-5,5-dimethyl-3,4,5,6-tetrahydro-[1,1′-biphenyl]-2-yl)methyl)piperazin-1-yl)-N-((4-(((4-((dimethyl(oxo)-λ^6-sulfanylidene)amino)cyclohexyl)methyl)amino)-3-nitrophenyl)sulfonyl) benzamide]		3.5
116		CC(C)C(=O)N=S1(=O)CCN(CC[C@H](C)Nc2ccc(S(=O)(=O)NC(=O)c3ccc(N4CCN(CC5=C(c6ccc(Cl)cc6)CC(C)(C)CC5)CC4)cc3Oc3cnc4[nH]ccc4c3)cc2S(=O)(=O)C(F)(F)F)CC1 [Example 90, (S)-2-((1H-pyrrolo[2,3-b]pyridin-5-yl)oxy)-4-(4-((4′-chloro-5,5-dimethyl-3,4,5,6-tetrahydro-[1,1′-biphenyl]-2-yl)methyl)piperazin-1-yl)-N-((4-((4-(1-(isobutyrylimino)-1-oxido-1λ^6-thiomorpholino)butan-2-yl)amino)-3-((trifluoromethyl)sulfonyl)phenyl)sulfonyl) benzamide]	225	
53		CC(=O)N=S1(=O)CCN(CC[C@H](C)Nc2ccc(S(=O)(=O)NC(=O)c3ccc(N4CCN(CC5=C(c6ccc(Cl)cc6)CC(C)(C)CC5)CC4)cc3Oc3cnc4[nH]ccc4c3)cc2S(=O)(=O)C(F)(F)F)CC1 [Example 89, (S)-2-((1H-pyrrolo[2,3-b]pyridin-5-yl)oxy)-N-((4-((4-(1-(acetylimino)-1-oxido-1λ^6-thiomorpholino)butan-2-yl)amino)-3-((trifluoromethyl)sulfonyl)phenyl)sulfonyl)-4-(4-((4′-chloro-5,5-dimethyl-3,4,5,6-tetrahydro-[1,1′-biphenyl]-2-yl)methyl)piperazin-1-yl)benzamide]	112	
2		CC1(C)CCC(CN2CCN(c3ccc(C(=O)NS(=O)(=O)c4cnc(NCC5CCC(N=S(C)(C)=O)CC5)c([N+](=O)[O-])c4)c(Oc4cnc5[nH]ccc5c4)c3)CC2)=C(c2ccc(Cl)cc2)C1 (centres unmarked) [Example 52, 2-((1H-pyrrolo[2,3-b]pyridin-5-yl)oxy)-4-(4-((4′-chloro-5,5-dimethyl-3,4,5,6-tetrahydro-[1,1′-biphenyl]-2-yl)methyl)piperazin-1-yl)-N-((6-(((4-((dimethyl(oxo)-λ^6-sulfanylidene)amino)cyclohexyl)methyl)amino)-5-nitropyridin-3-yl)sulfonyl) benzamide]	29	
32		CCC(=O)N=S1(=O)CCN(CCNc2ccc(S(=O)(=O)NC(=O)c3ccc(N4CCN(CC5=C(c6ccc(Cl)cc6)CC(C)(C)CC5)CC4)cc3Oc3cnc4[nH]ccc4c3)cc2[N+](=O)[O-])CC1 [Example 67, 2-((1H-pyrrolo[2,3-b]pyridin-5-yl)oxy)-4-(4-((4′-chloro-5,5-dimethyl-3,4,5,6-tetrahydro-[1,1′-biphenyl]-2-yl)methyl)piperazin-1-yl)-N-((3-nitro-4-((2-(1-oxido-1-(propionylimino)-1λ^6-thiomorpholino)ethyl)amino)phenyl)sulfonyl)benzamide]	138	
